Measured values: ChEMBL document CHEMBL1201862, “PubChem BioAssay data set” (2004)
Calls of active or inactive are those of the source.

Columns and labels:
cells = format: functional, cell-based; conditions: HEK-CNG
[1] = biological target: T1, COUP transcription factor 2 (Homo sapiens, UniProt P24468); test: Luminescence-based cell-based high throughput dose response assay to identify inhibitors of COUP-TFII (NR2F2).; format: functional;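 further: HEK293 cells transiently cotransfected with COUP-TFII expression vector and reporter; luciferase reporter luminescence driven by COUP-TFII from the pX2-168 reporter plasmid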
T1 sequence (P24468 whole entry): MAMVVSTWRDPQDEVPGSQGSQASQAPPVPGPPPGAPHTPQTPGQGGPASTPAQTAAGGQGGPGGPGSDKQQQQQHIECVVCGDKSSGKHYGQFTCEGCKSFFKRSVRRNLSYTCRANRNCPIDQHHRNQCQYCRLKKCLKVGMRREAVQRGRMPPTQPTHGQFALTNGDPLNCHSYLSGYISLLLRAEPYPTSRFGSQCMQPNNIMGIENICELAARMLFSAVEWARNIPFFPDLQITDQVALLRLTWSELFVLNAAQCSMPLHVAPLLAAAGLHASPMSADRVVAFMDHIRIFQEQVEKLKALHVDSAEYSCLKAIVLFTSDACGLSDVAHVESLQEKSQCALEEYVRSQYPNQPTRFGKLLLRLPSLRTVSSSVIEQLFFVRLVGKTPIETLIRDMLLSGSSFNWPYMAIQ

Galanin receptor type 3 = biological target: T2, Galanin receptor type 3 (Homo sapiens, UniProt O60755); test: Fluorescence-based cell-based primary high throughput dose response assay to identify antagonists of the Galanin Receptor 3 (GalR3).; format: functional
T2 sequence (O60755 whole entry): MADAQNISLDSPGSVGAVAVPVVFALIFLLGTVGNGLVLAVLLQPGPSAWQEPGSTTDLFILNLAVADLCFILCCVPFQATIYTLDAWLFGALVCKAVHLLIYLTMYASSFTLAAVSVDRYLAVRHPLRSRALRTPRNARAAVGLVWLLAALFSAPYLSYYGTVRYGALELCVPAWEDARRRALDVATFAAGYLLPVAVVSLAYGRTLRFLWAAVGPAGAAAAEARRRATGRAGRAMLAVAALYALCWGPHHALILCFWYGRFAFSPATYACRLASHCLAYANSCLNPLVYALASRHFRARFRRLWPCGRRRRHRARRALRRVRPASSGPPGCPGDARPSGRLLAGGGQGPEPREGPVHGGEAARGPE

[2] = viability loss in Vero cells – cytotoxicity control for Vif-APOBEC3G degradation inhibitor project, dose response (AID 1117358); format: functional; conditions: Vero
Prothrombin = Prothrombin (Homo sapiens, UniProt P00734); test: Thrombin 1536 HTS Dose Response Confirmation. [Related pubchem assays: 1046 (Thrombin 1536 HTS; hits were confirmed in this assay)]; format: functional
Cytochrome P450 3A4 = Cytochrome P450 3A4 (Homo sapiens, UniProt P08684);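 further: CYP3A4 tested as one member of a cytochrome P450 panel screen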
fMet-Leu-Phe receptor = biological target: T3, fMet-Leu-Phe receptor (Homo sapiens, UniProt P21462); test: formyl peptide receptor binders – dose response (AID 519); format: functional
T3 sequence (P21462 whole entry): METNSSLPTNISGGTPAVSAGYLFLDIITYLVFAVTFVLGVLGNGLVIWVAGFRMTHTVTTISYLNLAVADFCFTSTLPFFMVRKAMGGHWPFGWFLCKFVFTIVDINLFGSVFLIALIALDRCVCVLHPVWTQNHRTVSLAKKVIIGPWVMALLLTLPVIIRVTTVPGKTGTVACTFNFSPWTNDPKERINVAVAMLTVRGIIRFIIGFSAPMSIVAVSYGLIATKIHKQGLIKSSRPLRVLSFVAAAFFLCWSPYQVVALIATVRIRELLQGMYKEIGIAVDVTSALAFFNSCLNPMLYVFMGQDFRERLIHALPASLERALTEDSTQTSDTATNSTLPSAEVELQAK

[3] = reduced cellular PGC1a acetyl-lysine signal – cell-based, cherry-picked samples, dose response (AID 720514); format: functional;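 further: potency may reflect raised or lowered acetylation signal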
Large T antigen = Large T antigen (Simian virus 40, UniProt P03070); format: functional, Betapolyomavirus macacae;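 further: Confirmatory-stage PubChem screen for compounds that inhibit SV40 T antigen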
[4] = biological target: Potassium voltage-gated channel subfamily KQT member 2 (Rattus norvegicus, UniProt O88943, W236L); test: potentiation of rat KCNQ2 current – cell-based, automated electrophysiology, mechanism study for KCNQ2 potentiator project, dose response (AID 2603); format: functional
Protein RecA = biological target: T4, Protein RecA (Mycobacterium tuberculosis, UniProt P9WHJ3); test: Fluorescence Cell-Free Homogeneous Dose Retest to Identify Inhibitors of RecA-Intein Splicing Activity. [Related pubchem assays (depositor defined):AID2097, AID2223, AID489010, AID492950]; format: functional
T4 sequence (P9WHJ3 whole entry): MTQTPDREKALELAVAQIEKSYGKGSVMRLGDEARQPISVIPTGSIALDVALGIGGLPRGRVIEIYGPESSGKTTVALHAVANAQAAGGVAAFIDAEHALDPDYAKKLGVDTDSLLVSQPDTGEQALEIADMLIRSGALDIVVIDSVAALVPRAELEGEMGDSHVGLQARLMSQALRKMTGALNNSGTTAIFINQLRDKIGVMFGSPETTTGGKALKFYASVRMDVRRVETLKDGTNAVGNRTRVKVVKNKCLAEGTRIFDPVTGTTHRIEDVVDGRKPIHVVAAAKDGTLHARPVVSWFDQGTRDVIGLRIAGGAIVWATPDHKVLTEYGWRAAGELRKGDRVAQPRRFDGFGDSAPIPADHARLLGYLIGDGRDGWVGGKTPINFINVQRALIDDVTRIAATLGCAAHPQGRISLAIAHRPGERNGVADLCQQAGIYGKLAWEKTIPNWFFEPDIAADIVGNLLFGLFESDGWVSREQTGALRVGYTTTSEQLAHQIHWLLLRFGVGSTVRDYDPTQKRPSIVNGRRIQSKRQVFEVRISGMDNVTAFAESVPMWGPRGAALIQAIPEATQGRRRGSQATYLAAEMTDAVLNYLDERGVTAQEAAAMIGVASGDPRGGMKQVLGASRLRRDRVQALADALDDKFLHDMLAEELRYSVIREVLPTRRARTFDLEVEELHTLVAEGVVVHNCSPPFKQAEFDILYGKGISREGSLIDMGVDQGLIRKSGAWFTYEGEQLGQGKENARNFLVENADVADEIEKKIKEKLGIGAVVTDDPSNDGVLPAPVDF

[5] = biological target: T5, Replicative DNA helicase DnaB (Mycobacterium tuberculosis, UniProt P9WMR3); test: DnaB intein splicing inhibitors, dose response, biochemical, cell-free fluorescence (AID 449749); format: functional
T5 sequence (P9WMR3 whole entry): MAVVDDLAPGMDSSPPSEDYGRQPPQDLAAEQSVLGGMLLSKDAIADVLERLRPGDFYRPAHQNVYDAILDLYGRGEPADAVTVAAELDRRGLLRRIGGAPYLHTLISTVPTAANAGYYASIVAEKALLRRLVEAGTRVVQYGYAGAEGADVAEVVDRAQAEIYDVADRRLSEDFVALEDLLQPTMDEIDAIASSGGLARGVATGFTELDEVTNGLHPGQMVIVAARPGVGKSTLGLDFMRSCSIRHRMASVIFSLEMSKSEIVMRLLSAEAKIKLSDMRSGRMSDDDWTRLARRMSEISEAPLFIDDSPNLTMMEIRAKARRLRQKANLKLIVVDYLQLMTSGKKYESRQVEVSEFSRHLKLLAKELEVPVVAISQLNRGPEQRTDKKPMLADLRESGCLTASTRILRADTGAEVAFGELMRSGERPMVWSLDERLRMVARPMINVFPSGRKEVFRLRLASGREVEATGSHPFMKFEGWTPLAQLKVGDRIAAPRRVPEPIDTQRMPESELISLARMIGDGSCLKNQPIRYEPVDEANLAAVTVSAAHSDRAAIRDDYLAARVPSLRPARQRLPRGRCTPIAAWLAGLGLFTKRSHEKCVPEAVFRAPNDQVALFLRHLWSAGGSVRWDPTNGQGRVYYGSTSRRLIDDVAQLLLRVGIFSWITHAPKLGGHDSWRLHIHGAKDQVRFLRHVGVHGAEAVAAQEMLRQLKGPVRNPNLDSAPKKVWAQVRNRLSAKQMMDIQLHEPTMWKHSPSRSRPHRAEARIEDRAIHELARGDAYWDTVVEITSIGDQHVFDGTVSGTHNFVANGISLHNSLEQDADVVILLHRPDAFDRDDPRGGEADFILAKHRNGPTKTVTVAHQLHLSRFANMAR

[6] = growth inhibition of PfATP4-mutant resistant parasites – NITD609-resistant line, SYBR Green, dry powder, dose response (AID 1159571); format: functional, cell-based;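 further: parasites synchronized at ring stage by sorbitol before testing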
[7] = Dd2 malaria parasite growth inhibition potency – SYBR Green, dry powder samples, dose response (AID 1159566); format: functional, cell-based;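 further: potency for growth inhibition with lower SYBR green DNA signal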
[8] = growth inhibition of yeast DHODH-expressing 3D7 parasites – SYBR Green, dry powder samples, dose response (AID 1159570); format: functional, cell-based;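 further: parasite growth measured after 72 hours of compound exposure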
[9] = P. falciparum Dd2 growth inhibitors, dose response, SYBR Green, cherry-picked samples (AID 1159567); format: functional, cell-based
Paired box protein Pax-8 = Paired box protein Pax-8 (Homo sapiens, UniProt Q06710); test: PAX8 transcriptional activity inhibition in RMG-I – RMG-I cells, luciferase, cherry-pick, dose response (AID 687027); format: functional, cell-based;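 further: luciferase reporter driven by Pax8 target thyroperoxidase promoter measured by SteadyGlo luminescence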
[10] = toxicity to human HepG2 hepatoma cells – cell-based, plate reader, dry powder samples, cytotoxicity control, dose response (AID 1159569); format: functional;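 further: inhibitor potency with signal falling toward the positive control level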
Coagulation factor XII = biological target: T6, Coagulation factor XII (Homo sapiens, UniProt P00748); format: functional;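 further: activated factor XIIa alpha cleaving a fluorogenic AMC peptide substrate; inhibitor potency from loss of enzyme activity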
T6 sequence (P00748 whole entry): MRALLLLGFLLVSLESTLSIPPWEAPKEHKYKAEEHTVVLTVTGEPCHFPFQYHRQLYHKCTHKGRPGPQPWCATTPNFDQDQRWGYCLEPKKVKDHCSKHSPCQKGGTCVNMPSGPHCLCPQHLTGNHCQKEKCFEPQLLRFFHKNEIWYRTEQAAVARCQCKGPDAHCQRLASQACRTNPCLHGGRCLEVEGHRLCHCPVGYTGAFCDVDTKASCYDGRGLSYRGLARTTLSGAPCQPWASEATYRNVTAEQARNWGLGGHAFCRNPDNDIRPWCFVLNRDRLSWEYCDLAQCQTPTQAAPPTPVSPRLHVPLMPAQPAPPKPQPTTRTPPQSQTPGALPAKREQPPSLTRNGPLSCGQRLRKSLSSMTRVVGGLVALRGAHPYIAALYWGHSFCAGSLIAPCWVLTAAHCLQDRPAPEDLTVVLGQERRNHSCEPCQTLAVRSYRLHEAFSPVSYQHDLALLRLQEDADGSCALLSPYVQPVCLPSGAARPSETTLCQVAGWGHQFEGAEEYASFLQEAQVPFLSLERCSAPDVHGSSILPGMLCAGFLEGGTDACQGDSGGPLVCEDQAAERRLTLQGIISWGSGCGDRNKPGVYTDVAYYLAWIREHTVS

[11] = Luminescence Cell-Based Dose Retest to Confirm Inhibitors of Cancer Stem Cells. [Related pubchem assays (depositor defined):AID2717, AID2721]; format: functional; conditions: Homo sapiens
INS1 = test: INS-1E survival protection against cytokine death – cell-based, luminescence, retest, dose response (AID 449756); format: functional; conditions: Rattus norvegicus;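 further: cell death triggered by IL-1 beta plus TNF-alpha plus IFN-gamma mixture; protective hits raise ATP signal compared with cytokine alone wells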
[12] = OVCAR8 cell viability loss – plate reader, dry powder samples, PAX8 project, dose response (AID 743197); format: functional, cell-based; conditions: OVCAR-8
[13] = OVCAR-3 cell viability loss – plate reader, dry powder samples, PAX8 inhibitor project, dose response (AID 743044); format: functional, cell-based

Paired box protein Pax-8, sequence (Q06710 whole entry): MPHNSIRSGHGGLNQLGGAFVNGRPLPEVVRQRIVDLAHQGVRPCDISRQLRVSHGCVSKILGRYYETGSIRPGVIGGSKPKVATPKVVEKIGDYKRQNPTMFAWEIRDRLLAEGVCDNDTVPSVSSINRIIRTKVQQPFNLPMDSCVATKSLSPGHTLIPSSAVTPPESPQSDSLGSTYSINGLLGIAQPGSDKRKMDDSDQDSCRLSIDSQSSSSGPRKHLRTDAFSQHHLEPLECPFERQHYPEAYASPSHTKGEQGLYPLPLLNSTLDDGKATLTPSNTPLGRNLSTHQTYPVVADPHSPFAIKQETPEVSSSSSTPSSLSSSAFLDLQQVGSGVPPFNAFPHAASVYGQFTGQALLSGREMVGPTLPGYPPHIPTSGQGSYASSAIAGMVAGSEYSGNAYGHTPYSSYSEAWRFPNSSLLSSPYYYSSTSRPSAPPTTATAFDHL
Large T antigen, sequence (P03070 whole entry): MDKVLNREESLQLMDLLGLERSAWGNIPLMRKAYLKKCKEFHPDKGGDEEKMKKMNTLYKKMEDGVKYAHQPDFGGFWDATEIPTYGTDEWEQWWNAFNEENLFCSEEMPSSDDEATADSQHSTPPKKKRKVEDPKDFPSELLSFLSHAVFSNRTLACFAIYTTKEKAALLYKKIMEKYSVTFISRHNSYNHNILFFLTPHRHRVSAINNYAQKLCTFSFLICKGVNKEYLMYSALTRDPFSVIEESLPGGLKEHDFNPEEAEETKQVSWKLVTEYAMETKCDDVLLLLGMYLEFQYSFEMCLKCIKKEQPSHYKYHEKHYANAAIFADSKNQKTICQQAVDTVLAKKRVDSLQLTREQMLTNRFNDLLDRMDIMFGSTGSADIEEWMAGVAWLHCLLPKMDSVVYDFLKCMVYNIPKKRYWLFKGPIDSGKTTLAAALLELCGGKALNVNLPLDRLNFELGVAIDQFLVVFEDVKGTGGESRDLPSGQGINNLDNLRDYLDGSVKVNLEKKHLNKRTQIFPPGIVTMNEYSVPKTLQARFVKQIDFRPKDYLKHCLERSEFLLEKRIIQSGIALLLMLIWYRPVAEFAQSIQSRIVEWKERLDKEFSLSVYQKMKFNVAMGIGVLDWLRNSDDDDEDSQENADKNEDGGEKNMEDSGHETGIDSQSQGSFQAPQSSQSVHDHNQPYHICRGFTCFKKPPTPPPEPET
Cytochrome P450 3A4, sequence (P08684 whole entry): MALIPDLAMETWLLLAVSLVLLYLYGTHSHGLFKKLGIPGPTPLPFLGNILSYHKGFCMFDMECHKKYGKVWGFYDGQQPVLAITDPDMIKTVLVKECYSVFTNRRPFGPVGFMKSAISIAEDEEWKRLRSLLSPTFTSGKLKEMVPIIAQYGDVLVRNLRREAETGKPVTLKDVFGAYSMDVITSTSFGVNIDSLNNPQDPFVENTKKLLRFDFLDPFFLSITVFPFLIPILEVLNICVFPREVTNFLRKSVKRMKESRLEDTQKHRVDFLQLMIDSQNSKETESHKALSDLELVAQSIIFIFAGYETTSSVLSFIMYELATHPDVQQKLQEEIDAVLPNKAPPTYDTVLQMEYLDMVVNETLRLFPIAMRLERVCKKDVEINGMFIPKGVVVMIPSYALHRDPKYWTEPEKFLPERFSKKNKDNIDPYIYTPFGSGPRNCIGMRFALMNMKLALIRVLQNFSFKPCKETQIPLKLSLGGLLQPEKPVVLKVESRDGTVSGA
Potassium voltage-gated channel subfamily KQT member 2, sequence (O88943 whole entry W236L): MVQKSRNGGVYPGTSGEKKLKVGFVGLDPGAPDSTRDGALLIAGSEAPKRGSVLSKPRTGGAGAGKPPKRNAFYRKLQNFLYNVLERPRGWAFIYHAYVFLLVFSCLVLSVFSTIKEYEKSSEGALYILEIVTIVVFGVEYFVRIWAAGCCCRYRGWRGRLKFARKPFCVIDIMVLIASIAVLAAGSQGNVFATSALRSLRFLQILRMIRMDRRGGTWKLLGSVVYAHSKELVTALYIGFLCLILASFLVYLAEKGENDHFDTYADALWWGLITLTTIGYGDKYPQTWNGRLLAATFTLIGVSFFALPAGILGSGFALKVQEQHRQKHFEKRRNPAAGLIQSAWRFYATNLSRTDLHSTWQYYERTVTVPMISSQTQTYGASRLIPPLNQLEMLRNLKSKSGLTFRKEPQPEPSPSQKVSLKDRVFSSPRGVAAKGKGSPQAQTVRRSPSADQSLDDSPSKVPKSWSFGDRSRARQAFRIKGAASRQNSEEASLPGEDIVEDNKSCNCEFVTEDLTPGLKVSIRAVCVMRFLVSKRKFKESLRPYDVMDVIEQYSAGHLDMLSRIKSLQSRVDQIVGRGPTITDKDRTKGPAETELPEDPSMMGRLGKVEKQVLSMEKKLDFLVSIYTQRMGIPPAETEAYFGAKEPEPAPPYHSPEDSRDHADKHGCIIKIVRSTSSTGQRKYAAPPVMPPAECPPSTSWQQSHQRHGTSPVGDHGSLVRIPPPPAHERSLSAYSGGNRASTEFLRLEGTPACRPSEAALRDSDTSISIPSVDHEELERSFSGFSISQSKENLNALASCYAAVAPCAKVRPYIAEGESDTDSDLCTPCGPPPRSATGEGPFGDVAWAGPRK

CC(=O)c1ccc(N2CCN(C(S)=Nc3ccc(Oc4ccccc4)cc3)CC2)cc1
EC50 (cells): > 29.9 µM (inactive)
IC50 [1]: 8.27 µM (active)
IC50 (Galanin receptor type 3): 1.23 µM (active)

CSCC[C@@H](Nc1nc(-c2ccccc2)nc2c1oc1ccccc12)C(=O)O
CC50 [2]: > 40 µM (active)

ClC1(Cl)CC1CSc1nc[nH]n1 (stereo unspecified)
IC50 (Prothrombin): > 50 µM (not active)

CCC(NC(=O)Nc1cc(OC)c(OC)c(OC)c1)(C(F)(F)F)C(F)(F)F
AC50 (Cytochrome P450 3A4): 15.8 µM (inconclusive)
Ki (fMet-Leu-Phe receptor): > 66.7 µM (inactive)

C=CS(=O)(=O)N(Cc1ccccc1Br)[C@H](CO)Cc1ccccc1
AC50 [3]: 1.05 µM (active)

CCC(=O)N=C(Nc1cccc(OC)c1)Nc1nc(C)cc(C)n1
IC50 (Prothrombin): 0.268 µM (active)

CCOc1cc(N2CCOCC2)c(OCC)cc1NS(=O)(=O)c1ccc(Cl)s1
CC50 [2]: > 40 µM (active)
IC50 (Large T antigen): 61.4 µM (active)

CC(C)c1nnc(NC(=O)c2nc(S(=O)(=O)Cc3ccccc3F)ncc2Cl)s1
EC50 [4]: 8.4 µM (active)
EC50 (Protein RecA): 3.16 µM (active)
AC50 [5]: 4.25 µM (active)

C[C@H](CO)N1C[C@H](C)[C@@H](CN(C)Cc2ccc(Oc3ccccc3)cc2)OCc2ccccc2-c2c(n(C)c3ccccc23)C1=O
AC50 [6]: 2.82 µM (active)
AC50 [7]: 2.58 µM (active)
AC50 [8]: 3.28 µM (active)
AC50 [9]: 2.58 µM (active)
AC50 (Paired box protein Pax-8): 17.1 µM (active)
AC50 [10]: 20.3 µM (active)

CCc1nnc(NC(=O)CCN(c2ccc(C)cc2)S(=O)(=O)c2ccccc2)s1
IC50 (Coagulation factor XII): > 50 µM (inactive)
IC50 (Prothrombin): > 50 µM (not active)

O=C(Nc1ccc(N2CCN(Cc3ccccc3F)CC2)cc1)c1ccc([N+](=O)[O-])o1
AC50 [3]: 1.58 µM (active)
AC50 [11]: 1.29 µM (active)

O=C(NCCc1cn2ccccc2n1)c1cc(COc2ccc3ncccc3c2)on1
AC50 (INS1): 6 µM (active)
IC50 [1]: 8.53 µM (active)

COc1ccc(-c2ccccc2[C@H]2[C@@H](C#N)N(C(=O)NC3CCCC3)[C@H]2CO)cc1
AC50 [6]: 1.72 µM (active)
AC50 [7]: 1.27 µM (active)
AC50 [8]: 1.21 µM (active)
AC50 [9]: 1.9 µM (active)
AC50 [10]: 65.8 µM (active)

C[C@H](CO)N1C[C@H](C)[C@H](CN(C)Cc2ccc(C(F)(F)F)cc2)Oc2ccc(NS(=O)(=O)c3ccc(F)cc3)cc2CC1=O
AC50 [12]: 52.5 µM (active)
AC50 (Paired box protein Pax-8): 11.4 µM (active)

C[C@@H]1CCCCO[C@@H](CN(C)C(=O)Nc2cccc3ccccc23)[C@H](C)CN([C@H](C)CO)C(=O)c2cc(NS(=O)(=O)c3ccc(Cl)cc3)ccc2O1
AC50 [13]: 36.6 µM (active)
AC50 [12]: 32.4 µM (active)
AC50 (Paired box protein Pax-8): 5.29 µM (active)
